One test deals with Salmonella TA 98. The test is described as follows: Antimutagenic activity test on mutagenesis of heterocyclic amine to Salmonellae (preincubation Ames test with S9 mix). As to conditions: mutagen IQ 0.005 µg; test compound 20.0 µg. In kind it is cell-based. The protocol:
Compounds of the present invention were tested on their antimutagenic activity to heterocyclic amines of Glu-P-1·HCl, Trp-P-1 acetate and IQ by a preincubation method-applied Ames test according to the method of Diane et al (Diane F. Birt, et al., Carcinogenesis, Vol. 7, No. 6, 959-963, 1986).
That is, S9 mix (0.5 ml), 0.1 ml of a Salmonella TA 98 medium, a compound of the present invention dissolved in DMSO and 0.1 ml of one of the above mutagens were charged into a test tube, and cultured at 37°C for 20 minutes with shaking. Then, 2 ml of soft agar was added to, and mixed with, the contents in the test tube. The resultant mixture was spread over a minimal glucose agar medium, and cultured at 37°C for 48 hours, and the number of reverse mutation colonies. Two or three plates were prepared each dosage, and the test results were compared with the test result of a negative control group to which DMSO alone was added and the test result of a positive control group to which the corresponding mutagen alone was added. […]

Test [1] concerns lipid of rat liver microsome. Briefly: Inhibition activity against hyperoxidation of lipid of rat liver microsome (thiobarbituric acid method). It is filed as biochemical. The settings on record: for Inhibition ratio of lipid peroxidation (%): rat liver microsome, NADPH/ADP/FeCl₃, 37°C; for antioxidant activity (result in words on Table 2): summary of Table 2. The protocol:
[Inhibition activity against hyperoxidation of lipid of rat liver microsome]
A plurality of male SD rats (weighing […]) were prepared. Each rat was anesthetized with pentobarbital, and then subjected to celiotomy. A cannula was introduced into the portal vein of each rat, the abdominal large veins were sectioned, and 500 ml of cold 0.9 % NaCl was injected into the portal veins.
Livers were extracted from individual rats, and the livers were cut to pieces in 1.15 % KCl and homogenized with ice cooling. Then, 1.15 % KCl was further added to obtain a 30 % liver homogenized solution.
The above homogenized solution was centrifugally separated at 8,000 g (g: gravitation acceleration) for 10 minutes, and the resultant supernatant was recovered.
The so-prepared suspension was stored at -20°C before a test described in the following (2), and it was used within 1 week after the preparation.
As test compounds, the hydroquinone derivatives obtained in Preparation Examples 1 to 12, a known hydroquinone derivative which was a compound of the formula (I) in which R¹ was methyl (hereinafter referred to as HQ1) and BHT were respectively tested on their inhibition activities against hyperoxidation of lipid in the following manner.
First, 0.1 ml of the liver microsome suspension obtained in the above (1), 0.1 ml of NADPH (final concentration 2 mM), 0.1 ml of ADP (final concentration 10 mM) and 0.1 ml of a solution of one of the test compounds whose concentration was adjusted as shown in Table 2 with 10 % DMF were added to a tris-HCl buffer (167 mM KCl, 74 mM TRIS, pH 7.4), and the resultant mixture was warmed at 37°C for 5 minutes. Then, 0.1 ml of FeCl₃ (final concentration 0.1 mM) was added, and the mixture was warmed at 37°C for 20 minutes.
The resultant reaction mixture was cooled with ice. Then, 0.2 ml of 8.1 % SDS, 1.5 ml of an acetic acid buffer (prepared by adjusting 20 % acetic acid containing 0.27 mM HCl to pH 3.5 with 10N NaOH) and 1.5 ml of 0.8 % thiobarbituric acid were added to the cooled reaction mixture, and the resultant mixture was warmed over a boiling water bath for 20 minutes. After the warming, the reaction mixture was cooled with ice, and 4 ml of an n-BuOH/pyridine mixed solution [n-BuOH:pyridine = 15:1 (volume ratio)] was added to the cooled reaction mixture. The mixture was vigorously stirred.
The reaction mixture was centrifugally separated at 2,000 rpm for 10 minutes, and the resultant supernatant was measured for an absorbance at 532 nm to determine a thiobarbituric acid reaction amount. And, on the basis of a calibration curve of […] (MDA) amount prepared by using 1,1,3,3-tetramethoxypropane, a peroxidized lipid amount was determined as an amount of formed MDA.
In Control, the solution of the test compound in 10 % DMF was replaced with 0.1 ml of a 10 % DMF solution, and the above procedures were repeated to determine a peroxidized lipid amount. In Blank, each of 0.1 ml of NDAPH, 0.1 ml of ADP and 0.1 ml of FeCl₃ were replaced with 0.1 ml of water, the solution of the test compound in 10 % DMF was replaced with 0.1 ml of a 10 % DMF solution, and the above procedures were repeated to determine a peroxidized lipid amount.
The inhibition ratio of the lipid peroxidation reaction was calculated on the basis of the following equation. Inhibition ratio (%) =[1-(OD₁-OD₃)/(OD₂-OD₃)] x 100 [formula] OD₁: Absorbance when test compound is added. OD₂: Absorbance of Control OD₃: Absorbance of Blank

[2] abbreviates: test compound concentration 10⁻⁶M.
Setting [3] is: test compound concentration 10⁻⁵M.

Turning to “1-butyl-2,3,5-trimethylhydroquinone [Preparation Example 3]”, the Mutagenesis inhibition ratio in the test with Salmonella TA 98 is listed as 85. Besides, in test [1] (setting [2]), the “Inhibition ratio of lipid peroxidation (%)” value (from here on “Inhibition ratio … (%)”) amounted to 75.9%.
Regarding “1-decylhydroquinone [Preparation Example 2]”, in test [1], the “antioxidant activity (result in words on Table 2)” value was “excellent antioxidant activity over the known hydroquinone derivative HQ1”. In addition, the “Inhibition ratio … (%)” value in test [1] (setting [3]) turned out to be 79.5%; in test [1] (setting [2]) it was 1.8%.
The like results for “1-octylhydroquinone [Preparation Example 1]” were, in that order, “excellent antioxidant activity over the known hydroquinone derivative HQ1”, 99.7% and 9.8%.
“4-hexyl-2,3,5-trimethylhydroquinone [Preparation Example 8]”: the “Inhibition ratio … (%)” value in test [1] (setting [3]) amounted to 98.3%; in test [1] (setting [2]), 40%.
